# Measurements from publication PMC3948889, “The Effects of LPM570065, a Novel Triple Reuptake Inhibitor, on Extracellular Serotonin, Dopamine and Norepinephrine Levels in Rats” (PLoS ONE, 2014).
# Like-named read-outs stand apart in the source and are kept apart here.
# Key:
# [1] = system: immobility time in the forced swim test; details: without significantly altering locomotor activity, cited from earlier work
# [2] = system: extracellular 5-HT levels in the rat striatum; test: microdialysis: extracellular 5-HT levels in the rat striatum
# [3] = system: extracellular NE levels in the rat striatum; test: microdialysis: extracellular NE levels in the rat striatum
# [4] = system: immobility time in the forced swim test; details: tested 0.5, 1, 2 and 4 h post-dosing
# Experimental: Forced swim test was used to measure the depression-like behavior in rats after acute and chronic drug treatment. Animals were randomly divided into six groups. The animals in Groups 1, 2 and 3 were used for acute treatment, and the animals in Groups 4, 5 and 6 were used for chronic treatment (once a day for 14 days). […] The entire test was performed in 2 consecutive days: a 15-min pretest session on day 1 followed by a 5-min test session the next day. On the pretest day, rats were individually forced to swim for 15 min in a plastic cylinder (diameter 22 cm, height 46 cm) containing water (25±1°C) with a depth of 30 cm. On the test day, rats were placed in the cylinder again for a 5-min test trial at 0.5, 1, 2 and 4 h post-dosing (n = 10 rats per time point in each group). The total duration of immobilization was recorded. The criterion for immobilization was vertical floating in the water and movements necessary to keep the head above the water. After the test, animals were removed and dried with towels before returning to their home cage.
# [5] = system: extracellular DA levels in the rat striatum; test: microdialysis: extracellular DA levels in the rat striatum
# [6] = acute oral administration (oral solution, oral suspension 0.06 mmol·kg^−1)
# [7] = chronic oral suspension 0.06 mmol·kg^−1·day^−1 for 14 days
smiles,measurement,setting,value
CN1Cc2c(N)cccc2C(c2ccccc2)C1 (stereo not shown) [nomifensine],immobility time in the forced swim test,[1]; 2.5 mg/kg,reduce the immobility time
CC(NC(C)(C)C)C(=O)c1cccc(Cl)c1 (stereo not shown) [bupropion],immobility time in the forced swim test,[1]; 10 mg/kg,reduce the immobility time
CN(C)CC(c1ccc(O)cc1)C1(O)CCCCC1 (stereo not shown) [desvenlafaxine],extracellular 5-HT levels increased to (% of basal),"[2]; acute intravenous solution 0.04 mmol·kg^−1, after the initial 90 min decrease, then returned to basal",162±15%
same,decrease in extracellular 5-HT levels,"[2]; acute intravenous solution 0.04 mmol·kg^−1, during the first 90 min post-dosing",90%
same,effect on extracellular 5-HT levels vs. relative vehicle,[2]; [6],slight but significant increases
same,increase in 5-HT AUC0–240 min value of the vehicle group,[2]; [7],187±25%
same,effect on extracellular NE levels vs. relative vehicle,[3]; acute intravenous administration 0.04 mmol·kg^−1,marked and significant increases
same,effect on extracellular NE levels vs. relative vehicle,[3]; [6],slight but significant increases
same,extracellular NE peak value (% of basal),"[3]; chronic oral suspension 0.06 mmol·kg^−1·day^−1 for 14 days, at 60 min",139±9%
same,immobility time in the forced swim test vs. vehicle,[4]; acute oral suspension 0.06 mmol·kg^−1,only significantly reduced the immobility time at 1 h
same,immobility time in the forced swim test vs. vehicle,[4]; [7],significantly reduced the immobility time
same,effect on extracellular DA levels,"[5]; acute, oral administration or intravenous administration",did not significantly alter the extracellular DA levels
same,effect on extracellular DA levels,[5]; [7],did not significantly alter the extracellular DA levels
